Where “and” joins values, the source holds several entries; their conditions need not be identical. Equal entries are not always repeated. Inconclusive results and toxic doses are left out.
Tested on: P388 leukemia ip, CD2F1 mice, survival T/C
Test: NCI In Vivo Anticancer Drug Screen. Data for tumor model P388 Leukemia (intraperitoneal) in CD2F1 (CDF1) mice
Conditions: endpoint: median survival time, higher = longer survival
In short: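 Mice carrying the transplanted tumor received test compound or vehicle. Survival was recorded in each group, and the value is the treated-group measurement divided by that of the vehicle-treated control group.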

[1] = dose: 12.5 mg/kg/injection, schedule: Q01DX009 (ip), vehicle: saline with Tween-80
[2] = dose: 50.0 mg/kg/injection, schedule: Q01DX009 (ip), vehicle: saline with Tween-80
[3] = dose: 50.0 mg/kg/injection, schedule: Q01DX009 (ip), vehicle: saline
[4] = dose: 100.0 mg/kg/injection, schedule: Q01DX009 (ip), vehicle: saline
[5] = dose: 200.0 mg/kg/injection, schedule: Q01DX009 (ip), vehicle: saline
[6] = dose: 50.0 mg/kg/injection, schedule: Q01DX005 (ip), vehicle: Klucel (hydroxypropylcellulose) (HPC)
[7] = dose: 100.0 mg/kg/injection, schedule: Q01DX005 (ip), vehicle: Klucel (hydroxypropylcellulose) (HPC)
[8] = dose: 200.0 mg/kg/injection, schedule: Q01DX005 (ip), vehicle: Klucel (hydroxypropylcellulose) (HPC)
[9] = dose: 100.0 mg/kg/injection, schedule: Q01DX009 (ip), vehicle: saline with Tween-80

Compound: COc1cc2c(c(OC)c1OC)-c1cc3c(cc1CC1COC(=O)C1C2)OCO3 (configuration not stated)
- T/C (dose: 2.5 mg/kg/injection, schedule: Q04DX002 (ip), vehicle: saline with Tween-80): 97 % of control and 96 % of control and 102 % of control
- T/C (dose: 5.0 mg/kg/injection, schedule: Q04DX002 (ip), vehicle: saline with Tween-80): 95 % of control [middle of 6 runs]
- T/C (dose: 10.0 mg/kg/injection, schedule: Q04DX002 (ip), vehicle: saline with Tween-80): 101 % of control [middle of 6 runs]
- T/C [1]: 100 % of control
- T/C (dose: 20.0 mg/kg/injection, schedule: Q04DX002 (ip), vehicle: saline with Tween-80): 96 % of control and 104 % of control
- T/C (dose: 25.0 mg/kg/injection, schedule: Q01DX009 (ip), vehicle: saline with Tween-80): 97 % of control
- T/C (dose: 25.0 mg/kg/injection, schedule: Q04DX002 (ip), vehicle: saline with Tween-80): 100 % of control
- T/C [2]: 95 % of control
- T/C (dose: 50.0 mg/kg/injection, schedule: Q04DX002 (ip), vehicle: saline with Tween-80): 104 % of control
- T/C (dose: 100.0 mg/kg/injection, schedule: Q04DX002 (ip), vehicle: saline with Tween-80): 87 % of control and 119 % of control
- T/C (dose: 200.0 mg/kg/injection, schedule: Q04DX002 (ip), vehicle: saline with Tween-80): 91 % of control

Compound: OC1CC2(CC3(C1)SCCS3)SCCS2 (configuration not stated)
- T/C (dose: 100.0 mg/kg/injection, schedule: Q01DX001 (ip), vehicle: Klucel (hydroxypropylcellulose) (HPC)): 102 % of control
- T/C (dose: 200.0 mg/kg/injection, schedule: Q01DX001 (ip), vehicle: Klucel (hydroxypropylcellulose) (HPC)): 99 % of control
- T/C (dose: 400.0 mg/kg/injection, schedule: Q01DX001 (ip), vehicle: Klucel (hydroxypropylcellulose) (HPC)): 106 % of control

Compound: O=C(O)CS(=O)(=O)CCCCCS(=O)(=O)CC(=O)O
- T/C [3]: 106 % of control
- T/C [4]: 104 % of control
- T/C [5]: 105 % of control

Compound: CCOP(OCC)SSCn1nc2ccc3ccccc3n2c1=O
- T/C (dose: 15.0 mg/kg/injection, schedule: Q01DX005 (ip), vehicle: saline with Tween-80): 98 % of control
- T/C (dose: 30.0 mg/kg/injection, schedule: Q01DX005 (ip), vehicle: saline with Tween-80): 97 % of control
- T/C (dose: 60.0 mg/kg/injection, schedule: Q01DX005 (ip), vehicle: saline with Tween-80): 103 % of control

Compound: COc1cc2c(c(OC)c1OC)-c1[nH]ncc1CC2
- T/C (dose: 25.0 mg/kg/injection, schedule: Q04DX003 (ip), vehicle: Klucel (hydroxypropylcellulose) (HPC)): 100 % of control
- T/C (dose: 50.0 mg/kg/injection, schedule: Q04DX003 (ip), vehicle: Klucel (hydroxypropylcellulose) (HPC)): 103 % of control
- T/C (dose: 100.0 mg/kg/injection, schedule: Q04DX003 (ip), vehicle: Klucel (hydroxypropylcellulose) (HPC)): 93 % of control and 94 % of control
- T/C (dose: 400.0 mg/kg/injection, schedule: Q04DX003 (ip), vehicle: Klucel (hydroxypropylcellulose) (HPC)): 93 % of control

Compound: O=[As](O)(O)c1ccc(Nc2nc(Cl)nc(Cl)n2)cc1
- T/C (dose: 12.5 mg/kg/injection, schedule: Q01DX009 (ip), vehicle: Klucel (hydroxypropylcellulose) (HPC)): 96 % of control
- T/C (dose: 25.0 mg/kg/injection, schedule: Q01DX009 (ip), vehicle: Klucel (hydroxypropylcellulose) (HPC)): 104 % of control

Compound: Cc1cc(O)c2c(c1)C(=O)C(c1c(O)c3c(C)cccc3oc1=O)=C(c1c(O)c3c(C)cccc3oc1=O)C2=O
- T/C (dose: 14.0 mg/kg/injection, schedule: Q01DX005 (ip), vehicle: Klucel (hydroxypropylcellulose) (HPC)): 92 % of control
- T/C (dose: 28.0 mg/kg/injection, schedule: Q01DX005 (ip), vehicle: Klucel (hydroxypropylcellulose) (HPC)): 91 % of control
- T/C (dose: 56.0 mg/kg/injection, schedule: Q01DX005 (ip), vehicle: Klucel (hydroxypropylcellulose) (HPC)): 89 % of control
- T/C (dose: 112.0 mg/kg/injection, schedule: Q01DX005 (ip), vehicle: Klucel (hydroxypropylcellulose) (HPC)): 89 % of control

Compound: CS(=O)(=O)C(CCC(=O)c1cccs1)C(=O)c1ccccc1 (configuration not stated)
- T/C [6]: 89 % of control
- T/C [7]: 91 % of control
- T/C [8]: 89 % of control

Compound: Cc1nn2c(=O)c3c([N+](=O)[O-])c(C)nn3c(=O)c2c1[N+](=O)[O-]
- T/C [6]: 105 % of control
- T/C [7]: 97 % of control
- T/C [8]: 100 % of control

Compound: O=C1Nc2ccc([N+](=O)[O-])cc2/C1=C/C(=O)c1ccccc1
- T/C (dose: 3.13 mg/kg/injection, schedule: Q01DX009 (ip), vehicle: saline with Tween-80): 101 % of control
- T/C (dose: 6.25 mg/kg/injection, schedule: Q01DX009 (ip), vehicle: saline with Tween-80): 98 % of control
- T/C [1]: 96 % of control
- T/C [2]: 100 % of control
- T/C [9]: 108 % of control

Compound: N#C/C(=N\Nc1ccc(F)cc1)C(=O)C1CC1
- T/C (dose: 15.0 mg/kg/injection, schedule: Q01DX005 (ip), vehicle: Klucel (hydroxypropylcellulose) (HPC)): 100 % of control
- T/C (dose: 30.0 mg/kg/injection, schedule: Q01DX005 (ip), vehicle: Klucel (hydroxypropylcellulose) (HPC)): 106 % of control
- T/C (dose: 60.0 mg/kg/injection, schedule: Q01DX005 (ip), vehicle: Klucel (hydroxypropylcellulose) (HPC)): 98 % of control

Compound: O=C(O)c1cc(C(=O)O)cc(N2C(=O)c3ccccc3C2=O)c1
- T/C [3]: 100 % of control
- T/C [4]: 87 % of control
- T/C [5]: 89 % of control

Compound: CC1=C(c2ccccc2)OC(=O)C(Cl)(Cl)C1N(c1ccccc1)c1ccccc1 (configuration not stated)
- T/C (dose: 50.0 mg/kg/injection, schedule: Q01DX005 (ip), vehicle: saline with Tween-80): 88 % of control
- T/C (dose: 100.0 mg/kg/injection, schedule: Q01DX005 (ip), vehicle: saline with Tween-80): 93 % of control
- T/C (dose: 200.0 mg/kg/injection, schedule: Q01DX005 (ip), vehicle: saline with Tween-80): 93 % of control

Compound: O=C1CCc2ccccc2C1C(=O)CC(O)(c1ccccc1)c1ccccc1 (configuration not stated)
- T/C (dose: 12.5 mg/kg/injection, schedule: Q01DX009 (ip), vehicle: saline sonified): 95 % of control
- T/C (dose: 25.0 mg/kg/injection, schedule: Q01DX009 (ip), vehicle: saline sonified): 100 % of control
- T/C (dose: 50.0 mg/kg/injection, schedule: Q01DX009 (ip), vehicle: saline sonified): 95 % of control

Compound: COC(=O)NC1CC=CCC1I (configuration not stated)
- T/C (dose: 12.5 mg/kg/injection, schedule: Q01DX009 (ip), vehicle: saline): 96 % of control
- T/C (dose: 25.0 mg/kg/injection, schedule: Q01DX009 (ip), vehicle: saline): 105 % of control
- T/C [3]: 106 % of control

Compound: C1CN(/N=N/c2nn[nH]n2)CCO1
- T/C (dose: 50.0 mg/kg/injection, schedule: Q01DX009 (ip), vehicle: Klucel (hydroxypropylcellulose) (HPC)): 117 % of control
- T/C (dose: 100.0 mg/kg/injection, schedule: Q01DX009 (ip), vehicle: Klucel (hydroxypropylcellulose) (HPC)): 117 % of control
- T/C (dose: 200.0 mg/kg/injection, schedule: Q01DX009 (ip), vehicle: Klucel (hydroxypropylcellulose) (HPC)): 106 % of control

Compound: N#CCS(=O)(=O)OCCCl
- T/C (dose: 12.5 mg/kg/injection, schedule: Q01DX005 (ip), vehicle: saline with Tween-80): 120 % of control
- T/C (dose: 37.5 mg/kg/injection, schedule: Q01DX005 (ip), vehicle: saline with Tween-80): 151 % of control

Compound: N=Nc1c(OC(=O)Nc2cccc(Cl)c2)[nH]c2ccccc12
- T/C [2]: 94 % of control
- T/C [9]: 90 % of control
- T/C (dose: 200.0 mg/kg/injection, schedule: Q01DX009 (ip), vehicle: saline with Tween-80): 93 % of control

Compound: COc1ccc2c(c1)NC(O)c1cccn1C2=O (configuration not stated)
- T/C (dose: 0.1 mg/kg/injection, schedule: Q01DX005 (ip), vehicle: water): 91 % of control
- T/C (dose: 0.2 mg/kg/injection, schedule: Q01DX005 (ip), vehicle: water): 91 % of control
- T/C (dose: 0.4 mg/kg/injection, schedule: Q01DX005 (ip), vehicle: water): 93 % of control
- T/C (dose: 0.8 mg/kg/injection, schedule: Q01DX005 (ip), vehicle: water): 96 % of control
- T/C (dose: 1.6 mg/kg/injection, schedule: Q01DX005 (ip), vehicle: water): 102 % of control
- T/C (dose: 5.0 mg/kg/injection, schedule: Q01DX005 (ip), vehicle: distilled water + Tween-80): 100 % of control
- T/C (dose: 10.0 mg/kg/injection, schedule: Q01DX005 (ip), vehicle: distilled water + Tween-80): 94 % of control
- T/C (dose: 20.0 mg/kg/injection, schedule: Q01DX005 (ip), vehicle: distilled water + Tween-80): 100 % of control
- T/C (dose: 40.0 mg/kg/injection, schedule: Q01DX005 (ip), vehicle: distilled water + Tween-80): 95 % of control
- T/C (dose: 80.0 mg/kg/injection, schedule: Q01DX005 (ip), vehicle: distilled water + Tween-80): 91 % of control

Compound: CC(C[N+](C)(C)C)OC(N)=O (configuration not stated)
- T/C (dose: 50.0 mg/kg/injection, schedule: Q01DX001 (ip), vehicle: saline): 101 % of control
- T/C (dose: 100.0 mg/kg/injection, schedule: Q01DX001 (ip), vehicle: saline): 100 % of control
- T/C (dose: 200.0 mg/kg/injection, schedule: Q01DX001 (ip), vehicle: saline): 108 % of control

From PubChem BioAssay AID330 (DTP/NCI, 2004)
